Read-outs that look alike come from different tables or passages of the source.
How the values were obtained:
Jurkat T-lymphoma cells = assay: viability assay (propidium iodide, flow cytometry), Jurkat cells; conditions: for cytotoxicity: Jurkat cells, 48 hours, over the concentration range tested; for CC50: Homo sapiens, Jurkat, 48 h
Procedure: (§1) Jurkat T-lymphocyte-like, pro-myelocytic HL60 and erythroleukemic K562 cell lines were obtained from the American Type Culture Collection (ATCC, Rockville, Md., USA). The B9 Jurkat cell clone that overexpresses Bcl-2 was previously generated and characterised (Thomson et al (2005)). Jurkat and HL60 cells were grown in culture using RPMI 1640 media supplemented with 10% FBS, 100 units/mL penicillin and 100 μg/mL streptomycin at 37° C. in a humidified atmosphere with 5% CO2. K562 cells were grown in culture using Iscoves DMEM media supplemented with 10% FBS, 100 units/mL penicillin and 100 μg/mL streptomycin at 37° C. in a humidified atmosphere with 5% CO2.
(§2) All cells were treated at 1×10^6 per mL in media. Fresh stock solutions of ABT-737 were prepared in sterile DMSO and stored at −20° C. Stock solutions of 50 mM were then further diluted with DMSO and added to cells, maintaining the final concentration of DMSO constant at 0.1%. Jurkat and K562 cells were treated with 200 nM ABT-737, HL60 cells were treated with 50 nM ABT-737. Stocks of the compound I, pinnatoxin F and pinnatoxin G (1000×) were prepared in sterile DMSO and stored at −20° C. Concentrations were calculated using molecular weights of 401 (the compound I), 764 (pinnatoxin F) and 693 (pinnatoxin G). The final concentration of DMSO was kept constant at 0.1%.
(§3) Integrity of cell plasma membranes was assessed using propidium iodide (PI) staining at 48 hours. Cells (0.2×10^6) were loaded with 1 μg of propidium iodide (1 μL of a 1 mg/mL stock in water per 200 μL of cells). PI uptake by non-viable (stained, PI positive) cells was measured using the FC500 MPL Flow Cytometry system (Beckman Coulter Inc.). Viable cells were defined as PI-negative cells expressed as a percentage of the 10,000 cells analysed.

mice [1] = conditions: cited from earlier work; for LD50 reported for other cyclic imines: intraperitoneal injection
caspase-3 in P388 cells = assay: activation of caspase-3 in P388 cells; type: cell-based; conditions: after 12 hours of exposure
Procedure: (§4) No effects were recorded at 500 or 700 μg/kg. […] Furthermore, the onset of symptoms of toxicity was much slower with the compound I than with other cyclic imines. Structure-activity relationships among cyclic imines, both in terms of acute toxicity and effects on neuromuscular transmission, point to the importance of the imine moiety in the mode of action (Munday (2008)). […] This toxicity profile prompted further investigations into the use of the compound I as an anticancer therapeutic or synergist for Bcl-2 antagonists such as the compound designated ABT-737: […]

HL60 cells = assay: viability assay (propidium iodide, flow cytometry), HL60 cells; conditions: for CC50: Homo sapiens, HL-60, 48 h
Procedure: as §1, §2, §3

mice [2] = assay: acute toxicity in mice by intraperitoneal injection; type: in vivo
Procedure: as §4

[3] = as above; type: in vivo; conditions: mouse, in vivo, ip, intraperitoneal injection
Procedure: as §4

[4] = system: Caspase-3-like DEVDase activity in Bcl-2 overexpressing Jurkat cells; assay: caspase assay (DEVD-AMC), Bcl-2 overexpressing Jurkat cells; type: cell-based, human
Procedure: (§5) Six hours after treatment 1×10^6 cells were harvested and stored as cell pellets at −80° C. Cell pellets were resuspended in 15 μL PBS, transferred to a 96-well fluorescent plate, and 95 μL buffer (100 mM HEPES, 10% sucrose, 5 mM DTT, 0.1% NP-40 and 0.1% CHAPS at pH 7.25) containing 50 μM DEVD-AMC. The rate of release of fluorescent AMC was monitored at 37° C. (λex 390 nm, λem 460 nm). Data are expressed as a fold increase in activity over vehicle-treated cells incubated for the same time.

K562 cells = assay: viability assay (propidium iodide, flow cytometry), K562 cells
Procedure: as §1
All cells were treated at 1×10^6 per mL in media. Fresh stock solutions of ABT-737 were prepared in sterile DMSO and stored at −20° C. Stock solutions of 50 mM were then further diluted with DMSO and added to cells, maintaining the final concentration of DMSO constant at 0.1%. […] Concentrations were calculated using molecular weights of 401 (the compound I), 764 (pinnatoxin F) and 693 (pinnatoxin G). […]
as §3, with “Cells (0.2×10^6) were loaded with 1 μg of propidium iodide (1 μL of a 1 mg/mL stock in water per 200 μL of cells).” left out

[5] = system: Caspase-3-like DEVDase activity in wild-type Jurkat cells; assay: caspase assay (DEVD-AMC), wild-type Jurkat cells; type: cell-based, human
Procedure: as §5

Vero cells = assay: in vitro dose-response (toxicity) against Vero cells; type: cell-based
Procedure: (§6) FIG. 2. Dose response curves for the compound I designated portimine against P388 (▴) and Vero (▪) cells over 72 hours exposure.
as §4

P388 cells = assay: in vitro dose-response (toxicity) against P388 cells; type: cell-based
Procedure: as §6, §4

[6] = system: Bcl-2 overexpressing Jurkat cells (B9 clone); assay: cells
Procedure: as §1, §2, §3

Jurkat cells = assay: phosphatidylserine assay (Annexin V-FITC / propidium iodide), Jurkat cells; type: cell-based, human
Procedure: Phosphatidylserine (PS) becomes exposed on the outer leaflet of the plasma membrane during apoptosis. PS binds strongly with Annexin-V, which when labelled with a fluorescent probe such as fluorescein isothiocyanate (FITC), allows the detection of cells undergoing apoptosis. Treated cells (0.1×10^6) were harvested and centrifuged at 10,000×g for 1 minute. The supernatant was removed and cells were resuspended in 100 μL Annexin-V Binding Buffer (10 mM HEPES pH 7.4, 140 mM NaCl, 2.5 mM CaCl2). Cells were stained by adding 1 μL Annexin-V FITC conjugate, and then incubated in the dark at room temperature for 15 minutes. […] Viable cells (PI negative) that stained with Annexin-V FITC were termed PS positive.

Which cytotoxicity (Jurkat T-lymphoma cells) does the source give for `C=CC1=C[C@@H]2[C@@H]3O[C@]4(C[C@H]5CCC[C@@]6(CC[C@@]7(O[C@@H](CC[C@@]7(C)O)CC(=C)CCCC7=NC[C@H](C)[C@@H](C)C[C@@]72CC1)O6)O5)C[C@@H](C)[C@@H](O)[C@H]3O4` [pinnatoxin G, reference compound] here?
Its cytotoxicity is “little cytotoxicity”.

With `CC1=C[C@@H](C2=C(C)[C@@H]3/C=C(\C)[C@@H](O)CC[C@@H]4C[C@@H](C)[C@@H](O4)/C(C)=C/CCC4=NCCC[C@@]43CC2)OC1=O` [gymnodimine] as the molecule, how does the “LD50 reported for other cyclic imines” value (mice [1]) read?
Its value is 0.096 mg/kg.

For `C=CC1=C[C@@H]2[C@@H]3O[C@]4(CC[C@H](O4)[C@@H](C)C[C@@H](O)C3=O)C[C@H](O)C3=NCC[C@@]32CC1` (relative stereo) [compound I, (4R,6S,9R,10R,12S,14R,14aR,18aS)-rel-16-ethenyl-1,2,4,5,7,8,9,10,11,12, 14,14a,17,18-tetradecahydro-4,12-dihydroxy-10-methyl-)13H-6,9:6,14-diepoxybenzo[2,3]cyclotetradeca[1,2-b]pyrrol-13-one], which “activation of caspase-3” value (caspase-3 in P388 cells) is on record?
The value was “observed”.

What about the CC50 (HL60 cells; read-out: LC50, HL60 cells, 48 h, with 50 nM ABT-737) of the same molecule?
Its CC50 is 0.8 nM.

And the CC50 (HL60 cells; read-out: LC50, HL60 cells, 48 h, without ABT-737)?
The CC50 was 34 nM.

And the “onset of symptoms of toxicity” value (mice [2]; compared with other cyclic imines)?
Its value is “much slower”.

And the “effects recorded at sublethal doses” value (mice [2]; intraperitoneal injection, 500 or 700 μg/kg)?
Its value is “No effects”.

What about the LD50 [3] of the same molecule?
Its LD50 is 1.57 mg/kg.

What about the “increase in caspase activity” value ([4]; 50 nM portimine in combination with 200 nM ABT-737) of the same molecule?
Its value is 60 fold.

And the caspase activity ([4]; any concentration, 6 hours)?
The caspase activity was “no caspase activity”.

And the CC50 (K562 cells; Homo sapiens, K562, 48 h, read-out: LC50)?
The CC50 was 6.7 nM.

What about the “sensitivity of K562 cells” value (K562 cells; K562 cells, 48 h, without ABT-737) of the same molecule?
Its value is “relatively resistant”.

And the “caspase activity time course” value ([5]; Jurkat cells, 50 nM portimine)?
Its value is “steady increase in caspase activity over the 5 hours”.

And the caspase activation ([5]; wild-type Jurkat cells, increasing concentrations, 6 hours)?
The caspase activation was “dose-dependent increase”.

What about the cells killed (Vero cells; 10 nM, 72 hours of exposure) of the same molecule?
Its cells killed is greater than 90%.

What about the EC50 (Vero cells; Chlorocebus sabaeus, 72 hours exposure) of the same molecule?
Its EC50 is 3 nM.

What about the EC50 (P388 cells; Mus musculus, P388 cells, 72 hours exposure) of the same molecule?
The EC50 was 2.7 nM.

What about the cells killed (P388 cells; P388 cells, 10 nM, 72 hours of exposure) of the same molecule?
Its cells killed is greater than 90%.

What about the CC50 ([6]; Homo sapiens, Jurkat, 48 h, read-out: LC50) of the same molecule?
Its CC50 is 2.4 nM.

And the cell death ([6]; Jurkat cells overexpressing Bcl-2, 48 hours, without ABT-737, up to highest concentrations tested)?
The cell death was “unable to trigger cell death”.

And the CC50 (Jurkat T-lymphoma cells; read-out: LC50, Jurkat cells, 48 hours, without ABT-737)?
The CC50 was 6 nM.

What about the CC50 (Jurkat T-lymphoma cells; read-out: LC50, wild-type Jurkat cells, 48 hours, with 200 nM ABT-737) of the same molecule?
The CC50 was 1.4 nM.

What about the “time at which annexin V positive cells are evident” value (Jurkat cells; 50 nM portimine) of the same molecule?
The value was 2 h.

And the “cells annexin V positive” value (Jurkat cells; 6 hours)?
The value was “up to 50%”.

What about the necrosis (Jurkat cells; annexin V / propidium iodide staining) of the same molecule?
The necrosis was “no indication of significant necrosis”.

Which “sensitivity of HL60 cells” value (HL60 cells; HL60 cells, ABT-737 alone) does the source give for `CN(C)CC[C@H](CSc1ccccc1)Nc1ccc(S(=O)(=O)NC(=O)c2ccc(N3CCN(Cc4ccccc4-c4ccc(Cl)cc4)CC3)cc2)cc1[N+](=O)[O-]` [ABT-737, 4-[4-[(4′-chloro[1,1′-biphenyl]-2-yl)methyl]-1-piperazinyl]-N-[[4-[[(1R)-3-(dimethylamino)-1-[(phenylthio)methyl]propyl]amino]-3-nitrophenyl]sulfonyl]-benzamide, reference compound] here?
The value was “particularly sensitive”.

And the direct cytotoxicity [6]?
The direct cytotoxicity was “not directly cytotoxic”.

With `C=C1CCCC2=NCC(C)C(C)CC23CCC(C2C=C(C)C(=O)O2)=C(C)C3/C=C(/C)C(O)CC2CCC3(CCC4(OC(CCC4(C)O)C1)O3)O2` (centres unmarked) [desmethyl spirolide C] as the molecule, how does the “LD50 reported for other cyclic imines” value (mice [1]) read?
Its value is 0.0069 mg/kg.

With `C=C1CCCC2=NC[C@H](C)[C@@H](C)C[C@@]23CCC([C@@H]2CCC(=O)O2)=C[C@@H]3[C@@H]2O[C@@]3(C[C@@H](C)C[C@H]2O3)C[C@@H]2O[C@]3(CC[C@@]4(O[C@@H](CC[C@@]4(C)O)C1)O3)C[C@H](C)[C@@H]2O` [pinnatoxin F, reference compound] as the molecule, how does the EC50 (P388 cells; P388 cells in vitro) read?
Its EC50 is greater than 1000 nM.

And the cytotoxicity (Jurkat T-lymphoma cells)?
Its cytotoxicity is “little cytotoxicity”.

And the “LD50 reported for other cyclic imines” value (mice [1])?
Its value is 0.016 mg/kg.

With `C=C1CCCC2=NC[C@H](C)[C@@H](C)C[C@@]23CCC([C@@H]2C=C(C)C(=O)O2)=C(C)[C@@H]3/C=C(\C)[C@@H](O)C[C@H]2O[C@@]3(C[C@H]2C)O[C@@H](CC[C@@]3(C)O)C1` [spirolide H] as the molecule, how does the “toxicity to mice relative to the compound I” value (mice [1]; Roach et al (2009)) read?
Its value is “even less toxic to mice than the compound I”.
